Where two headings read alike, the source gives them in different places.
What was measured:
[1] = photoredox thiol-yne dihydrothiolation of acetylene by dithiol ([1+1] macrocyclisation, forms S-CH2CH2-S bridge); [Ir(d(tBu)(CF3)ppy)2(dtbbpy)]Cl 1 mol%, DIPEA 1.5 equiv, acetylene balloon, blue LEDs 455 nm; settings: the molecule shown is the open-chain precursor, DMF/H2O 50:1, 50.0 mM, 25.0 °C
[2] = the molecule shown is the open-chain precursor

For `O=C(OCCOc1ccc(OCCOC(=O)c2ccccc2S)cc1)c1ccccc1S`, the ring closure, isolated yield ([1]; 22-membered ring) was 0%.

In the case of `CC(CC(C)OC(=O)CCS)OC(=O)CCS` (racemic) [8 (+/-)], the ring closure, isolated yield ([1]; 15-membered ring, 12.0 h) is reported as 33%.

For `O=C(CCS)OCCCCCCOc1cccc2c1C1(CC2)CCc2cccc(OCCCCCCOC(=O)CCS)c21` (single isomer, unassigned) [51 ((R)-spirobiindane, stereo not in SMILES)], the ring closure, isolated yield ([1]; 31-membered ring, 12.0 h) was 21%.

In the case of `O=C(CS)OCCCCOC(=O)CS` [4], the ring closure, isolated yield ([1]; 14-membered ring, 12.0 h) is reported as 32%.

For `O=C(CCS)OCCOC(=O)CCS` [5], the ring closure, isolated yield ([1]; 14-membered ring, 12.0 h) was 42%.

With `O=C(CCS)OCCCOC(=O)CCS` [6] the ring closure, isolated yield ([1]; 15-membered ring, 12.0 h) was 30%.

Compound `CC(COC(=O)CCS)COC(=O)CCS` [7] has a ring closure, isolated yield ([1]; 15-membered ring, 12.0 h) of 27%.

In the case of `CC(C)(COC(=O)CCS)COC(=O)CCS` [9], the ring closure, isolated yield ([1]; 15-membered ring, 12.0 h) is reported as 32%.

In the case of `O=C(CCS)OCCCCOC(=O)CCS` [10], the ring closure, isolated yield ([1]; 16-membered ring, 12.0 h) is reported as 36%.

In the case of `O=C(CCS)OCCCCCOC(=O)CCS` [11], the ring closure, isolated yield ([1]; 17-membered ring, 12.0 h) is reported as 38%.

Compound `O=C(CCS)OCCCCCCOC(=O)CCS` [12] has a ring closure, isolated yield ([1]; 18-membered ring, 12.0 h) of 23%.

For `O=C(CCCCCCC(=O)OCCS)OCCS` [13], the ring closure, isolated yield ([1]; 18-membered ring, 12.0 h) was 28%.

In the case of `O=C(CCS)OCCCCCCCOC(=O)CCS` [14 (=3)], the ring closure, isolated yield ([1]; 19-membered ring, 12.0 h) is reported as 26%.

`O=C(CCS)OCCCCCCCCOC(=O)CCS` [15] showed a ring closure, isolated yield ([1]; 20-membered ring, 12.0 h) of 22%.

In the case of `O=C(CCS)OCCCCCCCCCOC(=O)CCS` [16], the ring closure, isolated yield ([1]; 21-membered ring, 12.0 h) is reported as 24%.

With `O=C(CCS)OCCCCCCCCCCOC(=O)CCS` [17] the ring closure, isolated yield ([1]; 22-membered ring, 12.0 h) was 20%.

Work on `O=C(CCS)OCCCCCCCCCCCCOC(=O)CCS` [18] yielded a ring closure, isolated yield ([1]; 24-membered ring, 12.0 h) of 25%.

In the case of `O=C(CCS)OCCCCCCCCCCCCCCOC(=O)CCS` [19], the ring closure, isolated yield ([1]; 26-membered ring, 12.0 h) is reported as 21%.

Work on `O=C(OCCCCCCS)C(F)(F)C(F)(F)C(=O)OCCCCCCS` [20] yielded a ring closure, isolated yield ([1]; 22-membered ring, 12.0 h) of 33%.

`O=C(OCCCCCCS)C(F)(F)C(F)(F)C(F)(F)C(F)(F)C(=O)OCCCCCCS` [21] showed a ring closure, isolated yield ([1]; 24-membered ring, 12.0 h) of 31%.

Work on `O=C(COCC(=O)OCCCCCCS)OCCCCCCS` [22] yielded a ring closure, isolated yield ([1]; 23-membered ring, 12.0 h) of 23%.

`O=C(CCS)OCCOCCOC(=O)CCS` [23] gave a ring closure, isolated yield ([1]; 17-membered ring, 12.0 h) of 29%.

`O=C(CCS)OCCOCCOCCOC(=O)CCS` [24] gave a ring closure, isolated yield ([1]; 20-membered ring, 12.0 h) of 28%.

For `O=C(CCS)OCCOCCOCCOCCOC(=O)CCS` [25], the ring closure, isolated yield ([1]; 23-membered ring, 12.0 h) was 27%.

Compound `O=C(CCS)OCCOCCOCCOCCOCCOCCOCCOCCOC(=O)CCS` [26] has a ring closure, isolated yield ([1]; 35-membered ring, 12.0 h) of 18%.

Compound `O=C(CCS)OCCN(CCOC(=O)CCS)c1ccccc1` [27] has a ring closure, isolated yield ([1]; 17-membered ring, 12.0 h) of 38%.

In the case of `CN(CC(=O)OCCCCCCS)CC(=O)OCCCCCCS` [28], the ring closure, isolated yield ([1]; 23-membered ring, 12.0 h) is reported as 24%.

In the case of `O=C(OCCCCCCS)[C@H]1CC[C@H](C(=O)OCCCCCCS)CC1` [29 (trans)], the ring closure, isolated yield ([1]; 24-membered ring, 12.0 h) is reported as 26%.

`O=C(OCCCCCCS)C12CCC(C(=O)OCCCCCCS)(CC1)CC2` [30] showed a ring closure, isolated yield ([1]; 24-membered ring, 12.0 h) of 28%.

With `O=C(OCCCCCCS)C12CC3CC(C1)CC(C(=O)OCCCCCCS)(C3)C2` [31] the ring closure, isolated yield ([1]; 23-membered ring, 12.0 h) was 32%.

In the case of `O=C(CCS)OCCN1CCN(CCOC(=O)CCS)CC1` [32], the ring closure, isolated yield ([1]; 20-membered ring, 12.0 h) is reported as 21%.

`O=C(OCCCCCCS)c1ccccc1S` [33] gave a ring closure, isolated yield ([1]; 14-membered ring, 12.0 h) of 25%.

With `O=C(CCS)OCc1ccccc1COC(=O)CCS` [34] the ring closure, isolated yield ([1]; 16-membered ring, 12.0 h) was 39%.

`O=C(COc1ccccc1OCC(=O)OCCCCCCS)OCCCCCCS` [35] gave a ring closure, isolated yield ([1]; 26-membered ring, 12.0 h) of 24%.

With `O=C(CCS)OCc1cccc(COC(=O)CCS)c1` [36] the ring closure, isolated yield ([1]; 17-membered ring, 12.0 h) was 37%.

Compound `O=C(CCS)OCc1ccc(COC(=O)CCS)cc1` [37] has a ring closure, isolated yield ([1]; 18-membered ring, 12.0 h) of 8%.

Compound `O=C(CCS)OCCOc1ccc(OCCOC(=O)CCS)cc1` [38] has a ring closure, isolated yield ([1]; 22-membered ring, 12.0 h) of 22%.

In the case of `O=C(CCS)OCCCOc1ccc2ccc(OCCCOC(=O)CCS)cc2c1` [39], the ring closure, isolated yield ([1]; 25-membered ring, 12.0 h) is reported as 31%.

In the case of `O=C(CCS)OCc1cccc(COC(=O)CCS)n1` [40], the ring closure, isolated yield ([1]; 17-membered ring, 12.0 h) is reported as 32%.

Work on `O=C(CCS)OCc1ccc(COC(=O)CCS)o1` [41] yielded a ring closure, isolated yield ([1]; 17-membered ring, 12.0 h) of 15%.

With `O=C(OCCCCCCS)[c-]1cccc1.O=C(OCCCCCCS)[c-]1cccc1.[Fe+2]` [42 (ferrocene)] the ring closure, isolated yield [2] was 8%.

For `SCCCOc1ccc2ccccc2c1-c1c(OCCCS)ccc2ccccc12` [43 ((R)-BINOL, axial stereo not in SMILES)], the ring closure, isolated yield ([1]; 16-membered ring, 12.0 h) was 40%.

With `SCCCCCCOc1ccc2ccccc2c1-c1c(OCCCCCCS)ccc2ccccc12` [44 ((R)-BINOL, axial stereo not in SMILES)] the ring closure, isolated yield ([1]; 22-membered ring, 12.0 h) was 35%.

In the case of `O=C(CCS)OCCCOc1ccc2ccccc2c1-c1c(OCCCOC(=O)CCS)ccc2ccccc12` [45 ((R)-BINOL, axial stereo not in SMILES)], the ring closure, isolated yield ([1]; 24-membered ring, 12.0 h) is reported as 30%.

Work on `SCCCCCCCCOc1ccc2ccccc2c1-c1c(OCCCCCCCCS)ccc2ccccc12` [46 ((R)-BINOL, axial stereo not in SMILES)] yielded a ring closure, isolated yield ([1]; 26-membered ring, 12.0 h) of 28%.

Work on `O=C(CCS)OCCCCCOc1ccc2ccccc2c1-c1c(OCCCCCOC(=O)CCS)ccc2ccccc12` [47 ((R)-BINOL, axial stereo not in SMILES)] yielded a ring closure, isolated yield ([1]; 28-membered ring, 12.0 h) of 29%.

In the case of `O=C(CCS)OCCCCCCOc1ccc2ccccc2c1-c1c(OCCCCCCOC(=O)CCS)ccc2ccccc12` [48 ((R)-BINOL, axial stereo not in SMILES)], the ring closure, isolated yield ([1]; 30-membered ring, 12.0 h) is reported as 26%.

`O=C(CCS)O[C@H]1CCCC[C@@H]1OC(=O)CCS` [49 (1S,2S per text; SI product procedure names 1R,2R)] showed a ring closure, isolated yield ([1]; 14-membered ring, 12.0 h) of 38%.

For `C[C@H](S)C(=O)NCC(=O)OCCCCCCS` [50 (S per text; SI also names R)], the ring closure, isolated yield ([1]; 16-membered ring, 12.0 h) was 19%.

`SCCS` [52 substrate (only [2+2])] showed a ring closure, isolated yield ([1]; 6-membered ring, 12.0 h) of 0%.

For `OC(CS)C(O)CS` (stereo not shown) [53 substrate (only [2+2])], the ring closure, isolated yield ([1]; 8-membered ring, 12.0 h) was 0%.

In the case of `SCCCS` [54 substrate (only [2+2])], the ring closure, isolated yield ([1]; 7-membered ring, 12.0 h) is reported as 0%.

`SCCCCS` [55 substrate (only [2+2])] gave a ring closure, isolated yield ([1]; 8-membered ring, 12.0 h) of 0%.

With `SCCCCCS` [56 substrate (only [2+2])] the ring closure, isolated yield ([1]; 9-membered ring, 12.0 h) was 0%.

For `SCCCCCCS` [57 substrate (only [2+2])], the ring closure, isolated yield ([1]; 10-membered ring, 12.0 h) was 0%.

`SCCCCCCCCS` [58 substrate (only [2+2])] gave a ring closure, isolated yield ([1]; 12-membered ring, 12.0 h) of 0%.

Work on `SCCCCCCCCCS` [59 substrate (only [2+2])] yielded a ring closure, isolated yield ([1]; 13-membered ring, 12.0 h) of 0%.

`SCCCCCCCCCCS` [60 substrate (only [2+2])] gave a ring closure, isolated yield ([1]; 14-membered ring, 12.0 h) of 0%.

With `SCCOCCOCCS` [62 (dimer 61)] the ring closure, isolated yield ([1]; 12-membered ring, 12.0 h) was 42%.

Compound `SCCOCCS` [64 (dimer 63)] has a ring closure, isolated yield ([1]; 9-membered ring, 12.0 h) of 23%.

`SCCSCCCSCCS` [66 (dimer 65)] gave a ring closure, isolated yield ([1]; 13-membered ring, 12.0 h) of 17%.
